Measured values from patent US20250186437A1, “CARBOLINE COMPOUNDS AND USE THEREOF” (PTC Therapeutics, Inc., priority 2021, published 2025).
pIC50: −log10 of the molar value.

system: MOLM-13 cells; assay: MOLM-13 Cell Proliferation Assay (indicator of DHODH inhibition); format: cell-based; conditions: Homo sapiens, 72 Hours of culture, CellTiter-Glo, no uridine
Procedure, shortened: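 Proliferation readout via CellTiter-Glo luminescence after 72 h compound treatment (37 °C, 5% CO2, 0.5% DMSO) of MOLM-13 cells seeded at 10^4 per well in RPMI 1640/10% FBS, used as a DHODH-inhibition indicator since these cells rely on de novo pyrimidine synthesis.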

SMILES | pIC50
Cc1cc(C#N)nc(N2CCc3c([nH]c4cc(F)c(Cl)cc34)C2c2ccc(C)c(F)c2F)n1 (stereo not drawn) [Compound 153, 2-[6-chloro-1-(2,3-difluoro-4-methylphenyl)-7-fluoro-1,3,4,9-tetrahydro-2H-pyrido[3,4-b]indol-2-yl]-6-methylpyrimidine-4-carbonitrile] | 8.96
Cc1ccc(C2c3[nH]c4cc(F)c(Cl)cc4c3CCN2c2nc(C(F)(F)F)cc(C(F)(F)F)n2)cc1 (stereo not drawn) [Compound 154, 2-[4,6-bis(trifluoromethyl)pyrimidin-2-yl]-6-chloro-7-fluoro-1-(4-methylphenyl)-2,3,4,9-tetrahydro-1H-pyrido[3,4-b]indole] | 9.05
Cc1ccc(C2c3[nH]c4cc(F)c(Cl)cc4c3CCN2c2nc(C(F)(F)F)cc(C(F)(F)F)n2)c(F)c1F (stereo not drawn) [Compound 155, 2-[4,6-bis(trifluoromethyl)pyrimidin-2-yl]-6-chloro-1-(2,3-difluoro-4-methylphenyl)-7-fluoro-2,3,4,9-tetrahydro-1H-pyrido[3,4-b]indole] | 9.30
OCCCc1ccc(C2c3[nH]c4cc(F)c(Cl)cc4c3CCN2c2nccc(C(F)(F)F)n2)cc1 (stereo not drawn) [Compound 156, 3-(4-{6-chloro-7-fluoro-2-[4-(trifluoromethyl)pyrimidin-2-yl]-2,3,4,9-tetrahydro-1H-pyrido[3,4-b]indol-1-yl}phenyl)propan-1-ol] | 8.40
OCCCc1ccc(C2c3[nH]c4cc(F)c(Cl)cc4c3CCN2c2ncc(F)cn2)cc1 (stereo not drawn) [Compound 159, 3-{4-[6-chloro-7-fluoro-2-(5-fluoropyrimidin-2-yl)-2,3,4,9-tetrahydro-1H-pyrido[3,4-b]indol-1-yl]phenyl}propan-1-ol] | 7.57
Cc1ccc([C@H]2c3[nH]c4ccc(Cl)cc4c3CCN2c2nccc(C(F)(F)F)n2)cc1 [Compound 161, (1S)-6-chloro-1-(4-methylphenyl)-2-[4-(trifluoromethyl)pyrimidin-2-yl]-2,3,4,9-tetrahydro-1H-pyrido[3,4-b]indole] | 8.92
Cc1ccc(C2c3[nH]c4cc(F)c(Cl)cc4c3CCN2c2ncc(F)c(C#N)n2)c(F)c1F (stereo not drawn) [Compound 162, 2-[6-chloro-1-(2,3-difluoro-4-methylphenyl)-7-fluoro-1,3,4,9-tetrahydro-2H-pyrido[3,4-b]indol-2-yl]-5-fluoropyrimidine-4-carbonitrile] | 8.62
Cc1ccc(C2c3[nH]c4cc(F)c(Cl)cc4c3CCN2c2nc(C)c(C)c(C)n2)cc1 (stereo not drawn) [Compound 163, 6-chloro-7-fluoro-1-(4-methylphenyl)-2-(4,5,6-trimethylpyrimidin-2-yl)-2,3,4,9-tetrahydro-1H-pyrido[3,4-b]indole] | 7.96
COC(=O)CCc1ccc(C2c3[nH]c4cc(F)c(Cl)cc4c3CCN2c2nccc(C(F)(F)F)n2)cc1 (stereo not drawn) [Compound 164, methyl 3-(4-{6-chloro-7-fluoro-2-[4-(trifluoromethyl)pyrimidin-2-yl]-2,3,4,9-tetrahydro-1H-pyrido[3,4-b]indol-1-yl}phenyl)propanoate] | 8.40
COC(=O)CCc1ccc(C2c3[nH]c4cc(F)c(Cl)cc4c3CCN2c2ncc(F)cn2)cc1 (stereo not drawn) [Compound 165, methyl 3-{4-[6-chloro-7-fluoro-2-(5-fluoropyrimidin-2-yl)-2,3,4,9-tetrahydro-1H-pyrido[3,4-b]indol-1-yl]phenyl}propanoate] | 7.78
OCC/C=C/c1ccc(C2c3[nH]c4cc(F)c(Cl)cc4c3CCN2c2nccc(C(F)(F)F)n2)cc1 (stereo not drawn) [Compound 167, (3E)-4-(4-{6-chloro-7-fluoro-2-[4-(trifluoromethyl)pyrimidin-2-yl]-2,3,4,9-tetrahydro-1H-pyrido[3,4-b]indol-1-yl}phenyl)but-3-en-1-ol] | 8.96
OCCCCc1ccc(C2c3[nH]c4cc(F)c(Cl)cc4c3CCN2c2nccc(C(F)(F)F)n2)cc1 (stereo not drawn) [Compound 168, 4-(4-{6-chloro-7-fluoro-2-[4-(trifluoromethyl)pyrimidin-2-yl]-2,3,4,9-tetrahydro-1H-pyrido[3,4-b]indol-1-yl}phenyl)butan-1-ol] | 8.39
Cc1ccc(C2c3[nH]c4cc(F)c(Cl)cc4c3CCN2c2nc(C)c(C)c(C)n2)c(F)c1F (stereo not drawn) [Compound 169, 6-chloro-1-(2,3-difluoro-4-methylphenyl)-7-fluoro-2-(4,5,6-trimethylpyrimidin-2-yl)-2,3,4,9-tetrahydro-1H-pyrido[3,4-b]indole] | 8.66
Cc1nc(N2CCc3c([nH]c4cc(F)c(Cl)cc34)C2c2cccc(F)c2F)nc(C)c1C (stereo not drawn) [Compound 171, 6-chloro-1-(2,3-difluorophenyl)-7-fluoro-2-(4,5,6-trimethylpyrimidin-2-yl)-2,3,4,9-tetrahydro-1H-pyrido[3,4-b]indole] | 8.30
Fc1cc2[nH]c3c(c2cc1Cl)CCN(c1nccc(C(F)(F)F)n1)C3c1ccc(Br)c(F)c1F (stereo not drawn) [Compound 172, 1-(4-bromo-2,3-difluorophenyl)-6-chloro-7-fluoro-2-[4-(trifluoromethyl)pyrimidin-2-yl]-2,3,4,9-tetrahydro-1H-pyrido[3,4-b]indole] | 8.82
Cc1ccc(C2c3[nH]c4cc(F)c(Cl)cc4c3CCN2c2ncc(F)c(C#N)n2)cc1 (stereo not drawn) [Compound 175, 2-[6-chloro-7-fluoro-1-(4-methylphenyl)-1,3,4,9-tetrahydro-2H-pyrido[3,4-b]indol-2-yl]-5-fluoropyrimidine-4-carbonitrile] | 8.33
Cc1ccc([C@@H]2c3[nH]c4ccc(Cl)cc4c3CCN2c2nccc(C#N)n2)c(F)c1F [Compound 176, 2-[(1R)-6-chloro-1-(2,3-difluoro-4-methylphenyl)-1,3,4,9-tetrahydro-2H-pyrido[3,4-b]indol-2-yl]pyrimidine-4-carbonitrile] | 7.24
Cc1ccc([C@@H]2c3[nH]c4ccc(Cl)cc4c3CCN2c2ncc(F)cn2)c(F)c1F [Compound 179, (1R)-6-chloro-1-(2,3-difluoro-4-methylphenyl)-2-(5-fluoropyrimidin-2-yl)-2,3,4,9-tetrahydro-1H-pyrido[3,4-b]indole] | 7.63
N#Cc1nc(N2CCc3c([nH]c4cc(F)c(Cl)cc34)C2c2cccc(F)c2F)ncc1F (stereo not drawn) [Compound 183, 2-[6-chloro-1-(2,3-difluorophenyl)-7-fluoro-1,3,4,9-tetrahydro-2H-pyrido[3,4-b]indol-2-yl]-5-fluoropyrimidine-4-carbonitrile] | 8.35

Next, values leading:

pIC50 | SMILES
8.01 | CN(C)c1ncc(C2c3[nH]c4cc(F)c(Cl)cc4c3CCN2c2nccc(C(F)(F)F)n2)cc1F (stereo not drawn) [Compound 158, 5-{6-chloro-7-fluoro-2-[4-(trifluoromethyl)pyrimidin-2-yl]-2,3,4,9-tetrahydro-1H-pyrido[3,4-b]indol-1-yl}-3-fluoro-N,N-dimethylpyridin-2-amine]
8.46 | CN(C)c1ncc(C2c3[nH]c4ccc(Cl)c(F)c4c3CCN2c2nccc(C(F)(F)F)n2)cc1F (stereo not drawn) [Compound 160, 5-{6-chloro-5-fluoro-2-[4-(trifluoromethyl)pyrimidin-2-yl]-2,3,4,9-tetrahydro-1H-pyrido[3,4-b]indol-1-yl}-3-fluoro-N,N-dimethylpyridin-2-amine]
8.15 | OCc1ccc(C2c3[nH]c4cc(F)c(Cl)cc4c3CCN2c2nccc(C(F)(F)F)n2)cc1 (stereo not drawn) [Compound 166, (4-{6-chloro-7-fluoro-2-[4-(trifluoromethyl)pyrimidin-2-yl]-2,3,4,9-tetrahydro-1H-pyrido[3,4-b]indol-1-yl}phenyl)methanol]
7.97 | CN(C)c1ccc(C2c3[nH]c4cc(F)c(Cl)cc4c3CCN2c2nccc(C(F)(F)F)n2)cc1 (stereo not drawn) [Compound 170, 4-{6-chloro-7-fluoro-2-[4-(trifluoromethyl)pyrimidin-2-yl]-2,3,4,9-tetrahydro-1H-pyrido[3,4-b]indol-1-yl}-N,N-dimethylaniline]
8.07 | CN(C)c1ccc(C2c3[nH]c4cc(F)c(Cl)cc4c3CCN2c2nccc(C(F)(F)F)n2)c(F)c1F (stereo not drawn) [Compound 173, 4-{6-chloro-7-fluoro-2-[4-(trifluoromethyl)pyrimidin-2-yl]-2,3,4,9-tetrahydro-1H-pyrido[3,4-b]indol-1-yl}-2,3-difluoro-N,N-dimethylaniline]
8.11 | Cc1ccc(C2c3[nH]c4ccc(C)c(F)c4c3CCN2c2nccc(C(F)(F)F)n2)cc1 (stereo not drawn) [Compound 174, 5-fluoro-6-methyl-1-(4-methylphenyl)-2-[4-(trifluoromethyl)pyrimidin-2-yl]-2,3,4,9-tetrahydro-1H-pyrido[3,4-b]indole]
8.41 | CN(C)c1ccc(C2c3[nH]c4ccc(Cl)c(F)c4c3CCN2c2nccc(C(F)(F)F)n2)cn1 (stereo not drawn) [Compound 177, 5-{6-chloro-5-fluoro-2-[4-(trifluoromethyl)pyrimidin-2-yl]-2,3,4,9-tetrahydro-1H-pyrido[3,4-b]indol-1-yl}-N,N-dimethylpyridin-2-amine]
8.47 | CN(C)c1ncc(C2c3[nH]c4ccc(Cl)c(F)c4c3CCN2c2nccc(C(F)(F)F)n2)cn1 (stereo not drawn) [Compound 178, 5-{6-chloro-5-fluoro-2-[4-(trifluoromethyl)pyrimidin-2-yl]-2,3,4,9-tetrahydro-1H-pyrido[3,4-b]indol-1-yl}-N,N-dimethylpyrimidin-2-amine]
7.95 | Cc1ccc([C@@H]2c3[nH]c4ccc(Cl)cc4c3CCN2c2nccc(C(F)(F)F)n2)c(F)c1F [Compound 180, (1R)-6-chloro-1-(2,3-difluoro-4-methylphenyl)-2-[4-(trifluoromethyl)pyrimidin-2-yl]-2,3,4,9-tetrahydro-1H-pyrido[3,4-b]indole]
6.75 | Fc1c(Cl)ccc2[nH]c3c(c12)CCN(c1nccc(C(F)(F)F)n1)[C@@H]3c1ccc(Cl)cc1 [Compound 181, (1R)-6-chloro-1-(4-chlorophenyl)-5-fluoro-2-[4-(trifluoromethyl)pyrimidin-2-yl]-2,3,4,9-tetrahydro-1H-pyrido[3,4-b]indole]
8.89 | Fc1c(Cl)ccc2[nH]c3c(c12)CCN(c1nccc(C(F)(F)F)n1)[C@H]3c1ccc(Cl)cc1 [Compound 182, (1S)-6-chloro-1-(4-chlorophenyl)-5-fluoro-2-[4-(trifluoromethyl)pyrimidin-2-yl]-2,3,4,9-tetrahydro-1H-pyrido[3,4-b]indole]
